Assay results: patent publication US12195760B2, “Method for enhancing proliferation capability of stem cells using ethionamide” (SAMSUNG LIFE PUBLIC WELFARE FOUNDATION, priority 2016, dated 2025)

Tests used:
[1] = tested on: human umbilical cord mesenchymal stem cells; settings: ethionamide-primed MSCs compared to control not treated; Oil red O, Alizarin Red S, Safranin-O; FIGS. 3A to 3C
Protocol: Specifically, to induce differentiation into adipocytes or osteocytes, human umbilical cord mesenchymal stem cells (1×10^5 cells) cultured in a medium treated with ethionamide were seeded in a 6-well plate, and the differentiation was induced for approximately 3 weeks using adipogenesis/osteogenesis differentiation kits (Gibco, USA) while replacing the medium with a fresh medium twice a week. Thereafter, the cells differentiated into adipocytes and osteocytes were stained with Oil red O and Alizarin Red S to check whether the cells were differentiated into adipocytes and osteocytes. Quantification of the adipocytes was carried out by completely removing the medium from differentiation culture containers, drying the culture containers, putting 100% isopropanol into the culture containers, culturing the cells at room temperature for 10 minutes, thoroughly mixing the differentiated cells with 100% isopropanol, and measuring an absorbance at 500 nm to quantify the degree of differentiation. Quantification of the osteocytes was carried out by quantifying the degree of differentiation using an Alizarin Red S staining quantification assay kit (ScienCell, USA). […]

[2] = tested on: human umbilical cord mesenchymal stem cells; settings: ethionamide-primed MSCs compared to control not treated
Protocol: More specifically, the human umbilical cord mesenchymal stem cells (2×10^5 cells) were equally divided into 1.5 ml microtubes, treated with 100 μL of phosphate-buffered saline (PBS) containing 2% FBS, treated with an antibody bound to fluorescein isothiocyanate (FITC), phycoerythrin (PE), or allophycocyanin (APC), and then reacted at room temperature for 20 minutes. […] After the reaction, an antibody reaction was neutralized with PBS containing 2% FBS, and it was then determined whether the positive and negative markers were expressed using a flow cytometer.

[3] = tested on: human umbilical cord mesenchymal stem cells
Protocol: After 72 hours, cell proliferation analysis was performed. For this purpose, a BrdU cell proliferation assay kit (Cell Signaling Technology, USA) using 5-bromo-2′-deoxyuridine (BrdU) bound during DNA synthesis in cells was used. Specifically, BrdU was added to cells, and reacted for 24 hours. Thereafter, the cells were immobilized, and DNA was denatured. Then, the cells were treated with an anti-BrdU antibody, and then reacted with a tetramethylbenzidine (TMB) substrate using a secondary antibody conjugated with horse-radish peroxidase (HRP), and an absorbance value was measured at 450 nm using an ELISA reader.

In the case of `CCc1cc(C(N)=S)ccn1` [ethionamide, 2-ethylpyridine-4-carbothioamide], the “differentiation into adipocytes, osteocytes, and chondrocytes” value [1] is reported as “well differentiated”, the “expression of positive markers CD44, CD73, CD90, CD105, CD166” value ([2]; FIG. 2A) is reported as “expressed at a similar level” and the “expression of negative markers CD11b, CD14, CD19, CD34, CD45, HLA-DR” value ([2]; FIG. 2B) is reported as “not expressed at a level similar to the control”. For the same compound, the “proliferation rate according to treatment time” value ([3]; 10 uM or 100 uM ethionamide, treated for 72 hours, FIG. 1B) was “most significantly enhanced” and the “proliferation rate of the cells according to treatment concentration” value ([3]; ethionamide at a concentration of 50 uM or more (tested 1 to 500 μM), 72 hours, BrdU absorbance 450 nm, FIG. 1A) was “significantly enhanced”.
